Values after ≈ are worked out from the molar mass of the structure shown. Active and inactive are the calls of the source. The rule behind the calls is not given here.
Tests used:
[1] = system: Rhizoctonia solani; test: Antifungal activity against Rhizoctonia solani AG-4 RST-04 assessed as mycelial growth inhibition after 2 days; format: functional; settings: AG-4 RST-04, 48 h
[2] = system: Rhizoctonia solani; test: Antifungal activity against Rhizoctonia solani AG-4 RST-04 assessed as mycelial growth inhibition at 80 to 120 ug/ml after 2 days; format: functional, organism-based

Which MIC [1] does the source give for `CCCCC[C@@H](O)[C@H]1C(=O)O[C@H](C)[C@@H](O)/C=C/C=C/C=C/C=C/C=C(\C)[C@@H](O)[C@H](O)[C@H](O)C[C@H](O)C[C@H](O)C[C@H](O)C[C@H](O)C[C@@H]1O` [PENTAMYCIN] here?
Its MIC is 72 mg/L (≈ 107 µM).

What about the “growth inhibition (GI)” value [2] of the same compound?
The value was “Active”.

Source: ChEMBL document CHEMBL3044539, “Fungichromin: a substance from Streptomyces padanus with inhibitory effects on Rhizoctonia solani” (2003)
